In brackets after ≈: the same amount, converted by molar mass. Some results are limits rather than exact numbers.

For orientation: solubility means the concentration that dissolves in the medium under given conditions. A low value points to a poorly soluble substance.

Data set [1] can be described thus: Solubility of bulk API in biorelevant media by HPLC. The class given is physicochemical. To be noted: thermodynamic from solid, up to 24 hours. How it is done:
Solubility of bulk APIs was conducted in various biorelevant media. Small amounts of API were suspended in media and continuously agitated at room temperature for a period up to 24 hours. Samples were centrifuged to pellet out undissolved solids and the resulting supernatant was sampled, diluted, and analyzed by HPLC utilizing the short-assay method sued for dissolution sample analysis. Both forms show poor gastric solubility, with the maleate salt displaying an order of magnitude larger solubility in intestinal media.

Data set [2] can be described thus: Intrinsic dissolution in 0.5% Tween 80. To be noted: 0.5% Tween 80, 100 rpm, 37° C. It is filed as physicochemical. Here is the method:
Milled and as-received API samples were weighed and compressed into a compact using a hydraulic press at 3,000 psi for 60 seconds. Compacts were mounted on intrinsic dissolution apparatus and dissolution study was conducted using USP dissolution apparatus in 250 mL of 0.5% Tween 80 solution at 100 rpm at 37° C. in duplicate. Aliquots (1.0 mL) of dissolution media are taken at selected time-points from each dissolution vessel at 5 minute intervals from 5 to 40 minutes. Each sample was centrifuged at 14,000 rpm for 3 minutes and the supernatant was samples and diluted with diluent for HPLC analysis (Table 7). The retention time of Compound A is about 1.5 minutes.
The Intrinsic dissolution performance of the jet-milled API vs. as received API was conducted to observe any increase in dissolution by particle size reduction. FIG. 8 and Table 15 below show the intrinsic dissolution results.

Data set [3] can be described thus: Glass transition temperature (Tg) by MDSC. It is filed as physicochemical. To be noted: for Tg: bulk API, melt-quench amorphous, MDSC. How it is done:
DSC was performed using a TA Instruments Discovery DSC2500 differential scanning calorimeter equipped with a TA instruments Refrigerated Cooling System 90 operating in either modulated or ramp mode. DSC was used to measure thermodynamic events and characteristics of Compound A free base and hemi-maleate salt, and subsequent SDIs. Events observed include the glass transition temperature (Tg), cold crystallization (Tc), defined as a crystallization event at a temperature lower than the melt temperature, and melting temperature (Tm). SDI samples were placed in non-hermetic aluminum pans and heated at a constant rate of 2.0° C./min over a 5-200° C. temperature range. The system was purged by nitrogen flow at 50 mL/min to ensure inert atmosphere through the course of measurement. […] Amorphous API was successfully created by rapidly quenching liquefied Compound A using Refrigerated Cooling System 90. The resulting amorphous API was analyzed by modulated DSC. A summary of DSC analysis parameters can be found in Tables 2 and 3.
Thermal properties of both Compound A forms were measured by both DSC and MDSC. […] The Tg of each was measured via a melt-quench technique, heating past its melting temperature and rapidly cooling to trap the molten material in an amorphous state. […] (FIG. 2/Table 11).
Samples were stored at the elevated humidity conditions for 18 hours at ambient temperature before sealing in hermetic pans and analysis by MDSC. Results are reported as a function of relative humidity (RH) in FIG. 13 and Table 20. All lead SDI formulations (HPMCAS-H and PVP VA64 dispersions) have a Tg that is low at elevated humidity conditions and is predicted to require conservative packaging (i.e., desiccant, foil-foil seal, or etc.) to obtain sufficient long-term physical stability of the SDI. To ensure long-term physical stability in open packaging at all ICH conditions, it is desirable that the SDI have a Tg higher than 50° C. at 75% RH, and ideally higher than 60° C. at 75% RH.

The next data set relates to AHR. The data set can be described thus: Pharmacodynamics: VAG539-induced CYP1A1 mRNA in mouse liver and spleen. The class given is in vivo, C57BL/6 mice. Particulars: 25 mg/kg Compound A oral. Here is the method: The pharmacodynamic effect of Compound A on the inhibition of AHR-dependent gene expression in liver and spleen was examined in C57BL/6 mice.
Mice were sacrificed at 4 and 10 hours post-dose and RNA was extracted and gene expression of CYP1A1 and the housekeeping gene mouse glyceraldehyde 3-phosphate dehydrogenase were quantified. CYP1A1 mRNA expression levels for each dose group for liver and spleen tissues were normalized to the control group.

In the next data set the test system is CT26.WT. Briefly: CT26.WT syngeneic colorectal cancer model, tumor growth, survival and re-challenge. The class given is in vivo, Balb/cJ mice. How it is done: The effect of single agent Compound A, and Compound A in combination with anti-PD-1 antibody (BioXcell RMP1-14) on TGI and tumor survival was evaluated in the CT26.WT syngeneic model of colorectal cancer. Balb/cJ female mice were inoculated subcutaneously with tumor cells and 4 days after inoculation, Compound A (10 mg/kg or 25 mg/kg) or Vehicle was administered orally QD for a total of 53 doses. Concurrently, anti-PD-1 antibody (10 mg/kg) was administered IP twice a week for a total of 5 doses.
At ≥95 days after the appearance of CRs in mice treated with the combination of Compound A and anti-PD-1 antibody, the responder animals were re-challenged with CT26.WT cells. Five naïve mice were also injected with CT26.WT cells as a positive control for tumor formation.

`CC(C)c1cnn2c(N[C@@H]3CCc4[nH]c5ccccc5c4C3)nc(-c3cncc(F)c3)nc12` [Compound A, (R)—N-(2-(5-fluoropyridin-3-yl)-8-isopropylpyrazolo[1,5-a][1,3,5]triazin-4-yl)-2,3,4,9-tetrahydro-1H-carbazol-3-amine]: the solubility is less than 0.5 µg/mL in data set [1] (simulated gastric fluid, 0.1N HCl, room temperature) and 1.4 µg/mL (≈ 3.17 µM) in data set [1] (FaSSIF, pH 6.8, room temperature). In addition, the “IDR (intrinsic dissolution rate)” value in data set [2] is 0.85 ug/min*cm^2. Besides, the Tm/Tg ratio in data set [3] (K/K, indicator of physical stability) was found to be 1.30. Also, the Tg in data set [3] (listed as Compound A Free Base) and in data set [3] (listed as free base) was 95 °C in each case. Further, the “inhibition of CYP1A1 mRNA increases induced by VAG539 in the liver” value in the data set with AHR (with 30 mg/kg VAG539) is “Complete inhibition”. Besides, the “inhibition of CYP1A1 mRNA induction in the spleen” value in the data set with AHR (with 30 mg/kg VAG539, at 4 hours) was “complete inhibition”. Also, the “TGI relative to vehicle treated mice” value is recorded as 39.8% in the data set on CT26.WT (Compound A 10 mg/kg PO QD (alone or with anti-PD-1 10 mg/kg IP twice a week)) and 40.9% in the data set on CT26.WT (Compound A 25 mg/kg PO QD (alone or with anti-PD-1 10 mg/kg IP twice a week)).

(Values after patent US20230026232A1, “AHR INHIBITORS AND USES THEREOF” (Ikena Oncology, Inc., priority 2019, published 2023).)
